From PMC11508974, “Computational Approach to Identifying New Chemical Entities as Elastase Inhibitors with Potential Antiaging Effects” (International Journal of Molecular Sciences, 2024)

Biological target: T1, porcine pancreatic elastase (PPE) (Sus scrofa, UniProt P00772)
T1 construct: gene CELA1
Assay: Chromogenic elastase inhibition assay with SANA substrate, p-nitroaniline release
Type: biochemical

T1 sequence (P00772 27-266): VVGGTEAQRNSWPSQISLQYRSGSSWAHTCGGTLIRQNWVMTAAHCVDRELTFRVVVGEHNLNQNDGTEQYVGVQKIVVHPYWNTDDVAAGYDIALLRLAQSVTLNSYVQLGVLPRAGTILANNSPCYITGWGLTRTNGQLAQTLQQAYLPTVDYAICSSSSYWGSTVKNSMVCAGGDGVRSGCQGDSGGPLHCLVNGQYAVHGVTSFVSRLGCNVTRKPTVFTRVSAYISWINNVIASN

IC50: 60.4 ± 1.98 µM
SMILES: Cc1cc(C)cc(Cn2c(SCC(=O)Nc3ccc(C)cc3Cl)nc3ccccc32)c1 [compound 2, N-(2-chloro-4-methylphenyl)-2-[[1-[(3,5-dimethylphenyl)methyl]-1H-benzimidazol-2-yl]thio]acetamide]
